“Also recorded” adds a separate entry of the source.

Type in all cases: cell-based, human
For test [1], the system named is N1 prostate fibroblast cells. The experiment in a line: Proliferation assay, add back, N1 fibroblasts. The settings on record: add back of exogenous chemokine, 96 hours. An excerpt:
FIG. 6C describes how CXCL1, CXCL5, CXCL6, and CXCL12 stimulate N15C6 prostate epithelial cell proliferation, N1 prostate fibroblast cell proliferation, and LNCaP prostate epithelial cell proliferation compared to serum-free (SF HIE) media alone. “Add back” assays were next performed to determine whether the addition of exogenous CXCL1, CXCL5, CXCL6, and CXCL12 to defined, serum-free media induced […] or LNCaP prostate epithelial or N1 fibroblast cell proliferation. For these and all experiments utilizing N15C6 and LNCaP cells, the N15C6 and N1 cells were used between passage 35-45, and LNCaP cells between passages 25-35, for consistency. All recombinant CXC proteins were obtained from R&D systems (e.g., CXCL1, #275-GR, CXCL5, #254-X; CXCL6, #333-GC, and SDF1 alpha/CXCL12, #350-NS). Cells were plated at 50,000 cells/well in triplicate, treated for 96 hours, and counted. […] Moreover, the concentrations for CXCL1, CXCL5, CXCL6 and CXCL12 observed to be growth-stimulatory for prostate epithelial cells were similar to those secreted into the media by older prostate stromal fibroblasts (see, e.g., FIGS. 6A and 6B).

The subject of test [2] is PC3 prostate cancer cells. The test can be described thus: Matrigel invasion assay, PC3. The settings on record: 20 nM chemokine. How it is done:
Invasion Assays. Ability to invade through synthetic basement membrane was measured by plating 15,000 cells/well onto control or Matrigel-coated membranes in duplicate using 24-well BD Matrigel Invasion Chambers (Becton-Dickinson). Cells were plated in complete media and left untreated or pre-treated with 1 ug/ml anti-CXCR2 (Biosource AHR1532X) or anti-CXCR4 (BD Pharmingen 555971) for 2 hours, then exposed to complete media only or 20 nM CXCL5 as a chemo-attractant added to the companion plate. After 24 hours of incubation, the upper surface of the membranes were ‘scrubbed’ to remove non-invasive cells, and the cells that had invaded through to the lower surface of the Matrigel-coated membranes or to the bottom of the companion plate were fixed, stained, and counted. The number of invaded cells was calculated as the average number of cells present on the lower surface of the Matrigel-coated membrane and the companion plate counted over four low power (10× objective) microscopic fields per membrane over both wells per experimental condition. […]

The next test relates to p65 subunit of NF-kappaB. The test can be described thus: Western blot, p65 phosphorylation in N15C6 cells. The settings on record: 10 pM, 100 pM or 1 nM CXCL5 tested. How it is done:
Western blot analysis Cells were lysed, proteins resolved by electrophoresis and electroblotting was carried out as described previously (Chaib H, et al., (2001) Cancer Res. 61, 2390-2394; incorporated herein by reference in its entirety). Proteins were detected using antibodies against phospho-ERK½ (Cell Signaling no. 9101), total ERK½ (Cell Signaling, no. 9102), CXCR4 (Abcam no. ab2074), CXCR7 (Abcam #Ab12870, Abcam #Ab12871, Abcam #38089), phospho-p65 (Rockland no. 100-401-264), total p65 (Rockland no. 100-4165), or beta-actin (Santa Cruz no. sc-1615), in conjunction with an ECL detection system.
Western Blot and Protein Analysis. […] Proteins were detected using antibodies against phospho-ERK½ (Cell Signaling #9101), total ERK½ (Cell Signaling, #9102), phospho-p65, (Rockland #100-401-264), total p65 (Rockland #100-4165), STAT3 (9139), phospho-STAT3 (9138), beta-actin (Santa Cruz #sc-1615), or tubulin (Upstate, #DM1A) in conjunction with an ECL detection system. […] Densitometric quantitation of immunoblot films was accomplished by scanning the original films and converting the .tiff files to grayscale. Images were inverted, and mean band intensities were measured using ImageJ (www, followed by, .nih.gov). The mean intensity of adjacent background was also measured for each band and subtracted from band intensity.

A further test concerns STAT3. The test can be described thus: Western blot, STAT3 phosphorylation in N15C6 cells. The settings on record: 10 pM, 100 pM or 1 nM CXCL5. How it is done:
(§1) Western Blot and Protein Analysis. Cells were lysed, proteins resolved by electrophoresis, and electroblotting was carried out as described previously except that 20 ug protein was electrophoresed per gel lane for N15C6 cells and 100 ug protein for LNCaP cells (see, e.g., Begley L, et al., Aging Cell. 2005 December; 4(6):291-8; Begley L A, et al., J Biol. Chem. 2007 Sep. 14; 282(37):26767-74; each herein incorporated by reference in their entireties). Proteins were detected using antibodies against phospho-ERK½ (Cell Signaling #9101), total ERK½ (Cell Signaling, #9102), phospho-p65, (Rockland #100-401-264), total p65 (Rockland #100-4165), STAT3 (9139), phospho-STAT3 (9138), beta-actin (Santa Cruz #sc-1615), or tubulin (Upstate, #DM1A) in conjunction with an ECL detection system. Secondary antibodies included goat anti-rabbit (Cell Signaling, #7074) and goat anti-mouse (Santa Cruz, #SC-2005), and both were used at a 1:5000 concentration. Immunoblots shown are representative of triplicate experiments. Densitometric quantitation of immunoblot films was accomplished by scanning the original films and converting the .tiff files to grayscale. Images were inverted, and mean band intensities were measured using ImageJ (www, followed by, .nih.gov). The mean intensity of adjacent background was also measured for each band and subtracted from band intensity.

In the next test the test system is p65 subunit of NFkappaB. The test can be described thus: Western blot, p65 phosphorylation in LNCaP cells. How it is done: as §1

On to “CXCL5: recombinant human CXCL5 (R&D Systems, 254-X), CXC-type chemokine”, for which the “cell proliferation compared to serum-free (SF HIE) media alone” value in test [1] was “stimulate”. Further, the “invasion through Matrigel versus control media / vehicle” value in test [2] was “invaded; also recorded: significantly more”. Also, in the test on p65 subunit of NF-kappaB, the NFkappaB subunit activation entry is given as “evident only after treatment with 1 nM CXCL5”. Further, the STAT3 phosphorylation entry with STAT3 is “rapidly and transiently phosphorylated”. Moreover, the “phosphorylation of the p65 subunit of NFkappaB” value in the test on p65 subunit of NFkappaB (10 pM or 100 pM CXCL5) was “rapidly and transiently phosphorylated”. Besides, in the test on p65 subunit of NFkappaB (nanomolar levels of CXCL5), the “activation of NFkappaB” value is “not evident”.

Source of the values: US7598028B2, “Compositions and methods for detecting and treating prostate disorders” (The Regents of the University of Michigan, priority 2006, dated 2009).
